Test results from patent US20120238604A1, “CYTOTOXIC COMPOUNDS” (Molecular Discovery Systems, priority 2009, published 2012).
Like-named read-outs stand apart in the source and are kept apart here.

Tests used:
[1] = system: HeLa cells expressing H2B-GFP; experiment: Perturbation of mitotic spindle organisation and assembly, anti-β-tubulin staining; assay type: cell-based, human; details: 20 μM, overnight
Protocol: HeLa cells stably expressing a green fluorescent marker of nuclear DNA (H2B-GFP) were exposed overnight to carrier (DMSO) or 20 μM compounds A1 and B3. The cells were then fixed with methanol, stained with mouse monoclonal anti-β-tubulin antibody and Alexafluor 546 nm goat anti-mouse antibody, and fluorescent signal visualised by microscopy. The open circle indicates a cell with a perturbed mitotic spindle while the arrow indicates a cell with a mostly disassembled mitotic spindle.
These cells were exposed overnight to carrier (0.1% (v/v) DMSO) or an equivalent volume of DMSO containing compounds A1 and B3 (final concentration in the culture medium was 20 μM). The cells were then briefly rinsed with phosphate-buffered saline (PBS) prior to fixation with 100% methanol at −20° C. The fixed cells were then stained with mouse monoclonal anti-β-tubulin antibody and Alexafluor 546 nm goat anti-mouse antibody (diluted 400× from commercial stocks into PBS containing 10 mg/ml bovine serum albumin (BSA)). The GFP and 546 nm fluorescence signals were then visualised using a microscope equipped for digital confocal epifluorescence imaging. The open circle in FIG. 1 represents a cell with a perturbed mitotic spindle while the arrow points to a cell with a mostly unassembled mitotic spindle.

[2] = system: HeLa cells expressing H2B-GFP; experiment: Induction of apoptosis, Annexin V binding; assay type: cell-based, human; details: overnight; 20 μM compound A1 or 100 nM paclitaxel
Protocol: HeLa cells were exposed overnight to 20 μM compound A1 or 100 nM paclitaxel, stained with a fluorescent Annexin V marker of apoptosis and visualised by epifluorescence microscopy following fixation.
FIG. 3 The H2B-GFP-expressing HeLa cells were treated overnight with 20 μM compound A1 or 100 nM paclitaxel. The cells were then exposed to Annexin-V tagged with Alexafluor 546 nm and visualized using an epifluorescence microscope equipped for digital imaging following fixation with 4% para-formaldehyde.

[3] = system: HeLa cells expressing H2B-GFP; experiment: Inhibition of cell proliferation (GI50) by nuclear counts, IN Cell Analyser; assay type: cell-based, human; details: HeLa; for GI50: Homo sapiens, concentration causing 50% inhibition of cell proliferation, nuclear counts every 24 hours
Protocol: Table 3 HeLa cells expressing H2B-GFP were plated in 96-well plates and exposed to concentrations ranging from 100 μM to […] of the indicated compounds C1-C78. The number of cells was then determined every 24 hours by imaging of the plates using an IN Cell Analyser (GE Healthcare), followed by measurement of the number of intact cell nuclei using Developer™ software (GE Healthcare). Drug concentrations that cause 50% inhibition of cell proliferation (GI50) were determined from the nuclear counts using GraphPad Prism software or ED50v10 freeware.

[4] = system: HeLa cells expressing H2B-GFP; experiment: Induction of mitotic arrest (EC50), mitotic index by phospho-histone 3 staining; assay type: cell-based; details: Homo sapiens, concentration for 50% induction of mitotic arrest, overnight, read-out: EC50 (mitosis) (HeLa)
Protocol: Parallel plates were treated overnight with the compounds to visualize the mitotic cells by staining with anti-phospho-histone 3 and Alexafluor 546 nm secondary antibodies after fixation with 4% paraformaldehyde. Following imaging of the nuclear GFP and phospho-histone 3 signals using an IN Cell Analyser (GE Healthcare), determination of the mitotic index by analysis of the images with Developer™ software (GE Healthcare) permitted estimation of the concentration that leads to 50% induction of the mitotic arrest (EC50). It can be seen that inhibition of cell proliferation and mitosis correlate well for the compounds tested.

[5] = system: purified porcine brain tubulin; experiment: In vitro microtubule assembly, light scattering at 350 nm; assay type: biochemical; details: 3 and 6 μM, 37° C.
Protocol: In vitro polymerisation of purified porcine brain tubulin at 37° C. in the presence of compound C9 (3 and 6 μM), 15 μM nocodazole, 2 μM vinblastine or an equal volume of carrier DMSO was measured over time as light scattering at 350 nm.

[6] = system: Vascular endothelium MS-1 cells; experiment: Disruption of the microtubule cytoskeleton of vascular endothelium cells; assay type: cell-based; details: 100 nM, 120 minutes
Source text: After staining with Hoescht, TRITC-phalloidin, anti-beta tubulin antibody and Alexafluor 488 nm secondary antibody, the cells were imaged at 400× magnification by epifluorescence microscopy.

[7] = system: Vascular endothelium MS-1 cells; experiment: Disruption of vascular endothelium cell adhesion (cell capillaries on Matrigel); assay type: cell-based; details: 300 nM, 60 minutes
Protocol: Following the addition of 300 nM compound C9 or an equivalent volume of DMSO carrier for 60 minutes, the extracellular matric plugs were imaged at 40× magnification by phase contrast microscopy.

[8] = system: HeLa cells expressing H2B-GFP; experiment: Induction of mitotic arrest, phase-contrast microscopy; assay type: cell-based, human; details: overnight; 20 μM compound B3 or 100 nM paclitaxel
Protocol: (A) HeLa cells were exposed overnight to carrier (DMSO), 20 μM compound B3 or 100 nM paclitaxel, and visualized by phase-contrast microscopy.
FIG. 2 (A) The H2B-GFP-expressing HeLa cells (grown under identical culture conditions as described in Example 1) were exposed overnight to carrier (0.1% (v/v) DMSO), 20 μM compound B3 or 100 nM paclitaxel in DMSO. The cells were then visualized using a phase-contrast microscope equipped for digital imaging.

[9] = system: HeLa cells expressing H2B-GFP; experiment: Induction of mitotic arrest, phospho-histone 3 marker of mitosis; assay type: cell-based, human; details: 4 hours; 20 μM compound or 100 nM paclitaxel
Protocol: (B) HeLa cells exposed for 4 hours to carrier (DMSO), 20 μM compound A1 or 100 nM paclitaxel were fixed and stained with anti-phospho-histone 3 marker of mitosis followed by fluorescent secondary antibody. The percentage of cells positive for phospho-histone 3 was determined by digital imaging and analysis of the fluorescence signals (B).
FIG. 2 (B) The H2B-GFP-expressing HeLa cells were treated for 4 hours with carrier (0.1% (v/v) DMSO), 20 μM compound A1 or 100 nM paclitaxel in DMSO. The cells were then briefly rinsed with phosphate-buffered saline (PBS) prior to fixation with 4% para-formaldehyde at ambient temperature. The fixed cells were then stained with mouse monoclonal anti-phospho-histone 3 antibody and Alexafluor 546 nm goat anti-mouse antibody (diluted 400× from commercial stocks into PBS containing 10 mg/ml bovine serum albumin (BSA)). The GFP and 546 nm fluorescence signals were then captured with an IN Cell Analyser 1000 (GE Healthcare) and the percentage of cells stained with the anti-phospho-histone 3 antibody determined using Developer™ software (GE Healthcare).

[10] = system: HeLa cells expressing H2B-GFP; experiment: Dose-dependent inhibition of cell proliferation, cell counts over 0-96 h; assay type: cell-based, human; details: 0.2-20 μM
Protocol: FIG. 4. Dose-dependent inhibition of cell proliferation by compound B3. The proliferation of HeLa cells at decreasing concentrations (from 20 to 0.2 μM) of polokinase inhibitor (PKi), KSP inhibitor (STLC) and compound B3 was determined (relative to paclitaxel at 400 to 10 nM) by counting of the cells over time (0-96 h).
FIG. 4 HeLa cells expressing H2B-GFP were plated in multi-well plates and exposed to 0.2-20 μM of polokinase inhibitor (PKi), KSP inhibitor (STLC) and compound B3, or 10-400 nM of paclitaxel. The number of cells at 0, 24, 48, 72 and 96 h of treatment was determined by imaging of the GFP signal in the plates with an IN Cell Analyser (GE Healthcare) followed by measurement of the number of intact cell nuclei using Developer™ software (GE Healthcare).

SMILES | GI50 [3] | EC50 ([4]; values in nM) | Effect on mitotic spindle organisation and assembly [1] | Induction of apoptotic cells (Annexin-V binding) [2] | Accumulation of cells with mitotic phenotype [8] | Accumulation of cells stained with phospho-histone 3 marker of mitosis [9] | other results
Fc1ccc(NC(=S)N/N=C/c2ccccc2)cc1 [A1, BENZALDEHYDE N-(4-FLUOROPHENYL)THIOSEMICARBAZONE] |  |  | substantial alterations in the spatial organisation of mitotic spindle fibres and chromosomes | induction of apoptotic cells |  |  | 
COc1ccccc1/C=N/NC(=S)Nc1cccc(C)c1 [B3, 2-METHOXYBENZALDEHYDE N-(3-METHYLPHENYL)THIOSEMICARBAZONE] |  |  | profoundly perturbs spindle function by blocking the assembly of spindle microtubule fibres |  | pronounced accumulation of round and translucent cells representing the mitotic phenotype | accumulation of cells that are stained with the phospho-histone 3 marker of mitosis | Concentration potently blocking cell proliferation [10]: > 1 µM
CC(=O)O[C@H]1C(=O)[C@@]2(C)[C@H]([C@H](OC(=O)c3ccccc3)[C@]3(O)C[C@H](OC(=O)[C@H](O)[C@@H](NC(=O)c4ccccc4)c4ccccc4)C(C)=C1C3(C)C)[C@]1(OC(C)=O)CO[C@@H]1C[C@@H]2O [paclitaxel, reference compound] |  |  |  | induction of apoptotic cells | pronounced accumulation of round and translucent cells representing the mitotic phenotype | accumulation of cells that are stained with the phospho-histone 3 marker of mitosis | 

Further lines, with some results ahead:

GI50 [3] | EC50 ([4]; values in nM) | SMILES | Effect on mitotic spindle organisation and assembly [1] | Induction of apoptotic cells (Annexin-V binding) [2] | Accumulation of cells with mitotic phenotype [8] | Accumulation of cells stained with phospho-histone 3 marker of mitosis [9] | other results
10 nM | 10 nM | COc1ccccc1/C=N/NC(=S)Nc1ccccc1C(F)(F)F [C9] |  |  |  |  | Anti-proliferative activity (effect of substitution, in words) ([3]; text comment on Table 3): greatly increase the anti-proliferative activity; Inhibition of in vitro microtubule assembly [5]: Dose-dependent inhibition of in vitro microtubule assembly; Disruption of the microtubule cytoskeleton [6]: Disruption of the microtubule cytoskeleton of vascular endothelium cells; Disruption of vascular endothelium cell adhesion [7]: Disruption of vascular endothelium cell adhesion
15 nM | 50 nM | COc1ccccc1/C=N/NC(=S)Nc1cc(Cl)ccc1OC [CB31] |  |  |  |  | 
1300 nM |  | COc1cccc(NC(=S)N/N=C/c2ccccc2OC)c1 [C26] |  |  |  |  | EC50 ([4]; values given in μM): ~1000 nM
